Measured values reported in ChEMBL document CHEMBL1138077, “Arylpiperazines with N-acylated amino acids as 5-HT1A receptor ligands” (Bioorg Med Chem Lett, 2006).

Biological target: T1, 5-hydroxytryptamine receptor 1A (Homo sapiens, UniProt P08908)
T1 sequence (P08908 whole entry): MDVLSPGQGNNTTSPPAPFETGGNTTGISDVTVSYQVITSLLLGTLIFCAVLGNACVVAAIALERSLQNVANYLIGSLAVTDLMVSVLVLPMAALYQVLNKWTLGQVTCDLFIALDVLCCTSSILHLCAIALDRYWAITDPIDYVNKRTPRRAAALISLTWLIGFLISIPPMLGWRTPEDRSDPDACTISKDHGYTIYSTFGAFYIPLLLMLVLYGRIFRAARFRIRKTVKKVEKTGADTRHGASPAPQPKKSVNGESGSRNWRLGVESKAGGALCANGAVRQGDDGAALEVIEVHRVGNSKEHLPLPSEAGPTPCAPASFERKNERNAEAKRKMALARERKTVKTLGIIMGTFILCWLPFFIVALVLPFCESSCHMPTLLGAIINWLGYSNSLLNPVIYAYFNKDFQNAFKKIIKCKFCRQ
Test: Affinity for 5HT1A receptor

| Ki [nM] | SMILES |
| --- | --- |
| 17 | COc1ccccc1N1CCN(CCCCNC(=O)[C@@H]2CCC(=O)N2C(=O)C2CCCCC2)CC1 |
| 15 | COc1ccccc1N1CCN(CCCCN2C(=O)C[C@H](NC(=O)C34CC5CC(CC(C5)C3)C4)C2=O)CC1 |
| 12 | COc1ccccc1N1CCN(CCCCNC(=O)[C@@H]2CCCN2C(=O)CC2CC3CCC2C3)CC1 (some centres undefined) |
| 69 | COc1ccccc1N1CCN(CCCCN2C(=O)C[C@H](NC(C)=O)C2=O)CC1 |
| 170 | COc1ccccc1N1CCN(CCCN2C(=O)C[C@H](NC(=O)C3CCCC3)C2=O)CC1 |
| 9 | COc1ccccc1N1CCN(CCCCN2C(=O)C[C@@H](NC(=O)C34CC5CC(CC(C5)C3)C4)C2=O)CC1 |
| 40 | COc1ccccc1N1CCN(CCCCN2C(=O)C[C@H](NC(=O)C3CCCC3)C2=O)CC1 |
| 50 | COc1ccccc1N1CCN(CCCCN2C(=O)C[C@H](NC(=O)c3ccccc3)C2=O)CC1 |
| 230 | COc1ccccc1N1CCN(CCCN2C(=O)C[C@H](NC(=O)C3CCCCC3)C2=O)CC1 |
| 40 | COc1ccccc1N1CCN(CCCN2C(=O)C[C@H](NC(=O)CC3CC4CCC3C4)C2=O)CC1 (some centres undefined) |
| 17 | COc1ccccc1N1CCN(CCCCN2C(=O)C[C@@H](NC(=O)C3CCCCC3)C2=O)CC1 |
| 480 | COc1ccccc1N1CCN(CCCN2C(=O)C[C@H](NC(C)=O)C2=O)CC1 |
| 29 | COc1ccccc1N1CCN(CCCCN2C(=O)C[C@H](NC(=O)C3CCCCC3)C2=O)CC1 |
| 25 | COc1ccccc1N1CCN(CCCCNC(=O)[C@H]2CCCN2C(=O)C23CC4CC(CC(C4)C2)C3)CC1 |
| 260 | COc1ccccc1N1CCN(CCCN2C(=O)C[C@H](NC(=O)c3ccccc3)C2=O)CC1 |
| 12 | COc1ccccc1N1CCN(CCCCNC(=O)[C@@H]2CCC(=O)N2C(=O)CC2CC3CCC2C3)CC1 (some centres undefined) |
| 11 | COc1ccccc1N1CCN(CCCCNC(=O)[C@H](CC(N)=O)NC(=O)CC2CC3CCC2C3)CC1 (some centres undefined) |
| 17 | COc1ccccc1N1CCN(CCCCNC(=O)[C@H]2CCCN2C(=O)CC2CC3CCC2C3)CC1 (some centres undefined) |
| 18 | COc1ccccc1N1CCN(CCCCN2C(=O)C[C@H](NC(=O)CC3CC4CCC3C4)C2=O)CC1 (some centres undefined) |
| 27 | COc1ccccc1N1CCN(CCCCNC(=O)[C@@H]2CCCN2C(=O)C2CCCCC2)CC1 |
| 24 | COc1ccccc1N1CCN(CCCCNC(=O)[C@H](CC(N)=O)NC(=O)C2CCCCC2)CC1 |
| 4 | COc1ccccc1N1CCN(CCCCNC(=O)[C@@H]2CCCN2C(=O)C23CC4CC(CC(C4)C2)C3)CC1 |
| 17 | COc1ccccc1N1CCN(CCCCN2C(=O)C[C@@H](NC(=O)CC3CC4CCC3C4)C2=O)CC1 (stereo in doubt; 9'{5,5}) |
| 63 | COc1ccccc1N1CCN(CCCN2C(=O)C[C@H](NC(=O)C34CC5CC(CC(C5)C3)C4)C2=O)CC1 |
